2 compounds from patent publication US10493046B2, “5-hydroxytryptamine 1B receptor-stimulating agent for use as a promoter of satellite cells self-renewal and/or differentiation” (INSTITUT PASTEUR, priority 2015, dated 2019) can be followed below.

One assay deals with vessels. Put plainly: Vessel number in tibialis anterior of treated mice (Flk1GFP/+ or CD31 immunostaining). It is filed as in vivo, mouse. The method, then:
(§1) Immunostaining was performed on cryosections fixed with 4% paraformaldehyde (PFA EMS#15710) in cold PBS, permeabilized with 0.5% Triton X-100 20 min at room temperature, washed, and blocked with 10% BSA for 30 min. Sections were incubated with primary antibodies overnight at 4° C. (see Table 1 below) and with Alexa-conjugated secondary antibodies 1/250 and Hoechst for 45 minutes. Sections were then analysed using an automated axioscan (Zeiss) or inverted Observer.Z1 Apotome (Zeiss). For apoptosis assessment, cells were collected in 2% serum, spun on polyD-lysine (Sigma-Aldrich#P6407), and immediately fixed with PFA 4%.
Throughout the study, focus was made on the tibialis anterior (TA). In skeletal muscle, SC are central for muscle repair. […] SC are localized close to capillaries and angiogenesis is known to be crucial for muscle repair SC survival with cellular interplays between vessel cells and SC. The number of vessels was therefore quantified. In control Flk1^GFP/+ mouse (placebo), the number of vessels was of 870±213.1 vessels per mm^2 and increased after 3 weeks of I.P treatment (1103±110.2 vessels per mm^2), and even more after 6 weeks (1384±175.3 vessels per mm^2, p=0.008) (FIG. 2e). Neovessels presented with normal histological appearance associating a basal lamina and a permeable lumen sometimes containing red blood cells. […] 841±137 CD31+ cells per mm^2 were counted in the placebo-treated mice vs. 2260±361 CD31+ cells per mm^2 in the fluoxetine-treated mice, p=0.008 (FIG. 2t-v), confirming the previous observation.
In order to investigate the effect of vortioxetine on vessels number, intra peritoneal (I.P) administration of 20 mg/kg of vortioxetine was performed for either 12 days, 3 or 6 weeks to C57Bl/6 mice (FIG. 10a). The number of CD31+ cells was counted by immunostaining. The number of vessels in the placebo is (863.5±115.6 vessels per mm^2) and increases after 12 days of I.P treatment (2274±926 vessels per mm^2, p=0.03), and even more after 3 weeks (2847±705 vessels per mm^2, p=0.02) (FIG. 10b). However, there was no statistically significant differences between 12 days and 3 weeks of treatment (p=0.49). Neovessels display a normal histological appearance associated with a basal lamina and a permeable lumen sometimes containing red blood cells. The daily administration of vortioxetine IP might cause unwanted peritoneal inflammation that could interfere with angiogenesis since inflammation and neovascularization are intertwined in some models. Vortioxetine was therefore administered per os (P.O) for 12 days: a similar increase in the number of vessels was observed (2451±595 vessels per mm^2 p=0.028, FIG. 10c). To further confirm those results, vortioxetine will be administered to Flk1^GFP/+ mice P.O and I.P for 12 days, and an ex vivo Matrigel angiogenesis assay and plasma from vortioxetine treated mice will be used on HUVEC (endothelial cells).

Another assay deals with Tibialis anterior. As to the kind of experiment: Muscle regeneration after notexin injury of tibialis anterior. It is filed as in vivo, mouse. The procedure: Animals were anesthetized with ketamine (Imalgene1000 100 mg/Kg Merial) and Xylazine (Rompun2% 20 mg/Kg Bayer) prior to injury. Animals were hydrated and treated with analgesic (Buprenorphin Axience 0.3 mg/kg) twice a day for 4 d following injury. For the injury, mice were anesthetized as previously described and 10 μl of 12.5 μg/ml Notexin (Lotaxan) was injected in the Tibialis anterior. All protocols were reviewed by the Institut Pasteur, the competent authority, for compliance with the French and European regulations on Animal Welfare and with Public Health Service recommendations. This project has been reviewed and approved (#2013-0044) by the Institut Pasteur ethic committee (C2EA 89-CETEA).
Tibialis anterior (TA) was carefully dissected and snap frozen in liquid-nitrogen-cooled isopentane for a few minutes and stored at −80° C. prior to cryosectioning (10 μm sections). Sections were kept at room temperature overnight before staining. Sections were then rehydrated in PBS for 10 minutes and fixed in 10% formalin for 3 minutes. The sections were then routinely stained with haematoxylin and eosin (HE) using an automated stain machine or manually with red sirius.
as §1
For image analysis (fibrosis quantification), ImageJ 1.46r software was using between 10 different photos randomly taken per section and 3 sections minimum per experimental group. The pictures were converted in a binary image and the pixel values then collected. For fibre size, the sections were immunostained with rabbit anti Laminin (Sigma-Aldrich #L9393) diluted at 1/200, overnight at 4° C. Secondary Donkey ant Rabbit 488 (DL488 JacksonImmuno #711486152) were used at 1/200 45 minutes at room temperature. The fibre perimeter was done automatically by using Pixcavator® software.

The test system of another assay is satellite cells. Put plainly: Satellite cells in vitro in plasma of treated mice (live videomicroscopy, immunostaining). The settings on record: for Reserve cells (quiescent Pax7 positive cells) 14 days post-plating: plasma from fluoxetine-treated animals. It is filed as cell-based, mouse. The procedure:
Muscle dissection was done as previously described in cold DMEM. Muscles were then chopped with small scissors and put in a 50 ml Falcon tube with collagenase 0.1% and trypsin 0.25% at 37° C. with gentle agitation. After 20 minutes, the supernatant was collected in 20% serum placed on ice, and the collagenase/trypsin solution was added to continue the digestion. Once muscle was completely digested, the solution was filtrated using 40 μm cell strainers. Satellite cells were cultured in 1:1 DMEM-Glutamax (Gibco#41965-039):MCDB201 (Sigma#M6770) containing 20% serum FBS (Biowest S1860). Medium was filtered using 0.22 μm filters. Cells were plated on Matrigel coating (BD Biosciences#354234) and kept in an incubator (37° C., 5% CO2). […] The thus-obtained supernatant replaced FBS in the culture medium; the rest of the medium was unchanged.
Cells isolated by FACS were plated overnight on a 24-well glass bottom plate (P24G-0-10-F; MatTek) coated with matrigel (BD Biosciences#354234) and placed in an incubator in pre-equilibrated medium (1:1 DMEM Glutamax: MCDB [Sigma-Aldrich], 20% FCS (Biowest S1860). The plate was then incubated at 37° C., 5% CO2 (Zeiss, Pecon). A Zeiss Observer.Z1 connected with a LCI PInN 10×/0.8 W phaseII objective and AxioCam camera piloted with AxioVision was used. Cells were filmed for up to 5 days, and images were taken every 30 min with brightfield and phase filters and MozaiX 3×3 (Zeiss). Raw data were transformed and presented as a video.
Those results were confirmed in vitro (FIG. 7a). […] This difference was lost when SC were plated with GR127935 (p=0.4) (FIG. 7e). The faster exit of quiescence and higher division rates were also lost when adding GR127935 in vitro (FIGS. 7f,g). The effects of the plasma from fluoxetine-treated animals were persistent when adding MDL100907 (FIGS. 7b-g).

[1] abbreviates: notexin injury after fluoxetine treatment.
Setting [2] is: 20% plasma from fluoxetine treated C57Bl/6 mice, live-videomicroscopy.

Molecules are shown by their SMILES.

As for `COc1ccc(NC(=O)c2ccc(-c3ccc(-c4noc(C)n4)cc3C)cc2)cc1N1CCN(C)CC1` [GR127935], the Number of vessels with vessels (GR127935 in osmotic pump together with fluoxetine P.O 6 weeks, Flk1GFP/+ mice) came out at 1028±173 vessels per mm^2. Further, the “Effect of the antagonist on the beneficial effects of fluoxetine after injury” value in the assay on Tibialis anterior (antagonist together with fluoxetine, SC, differentiating cells, fiber size, calcium deposits, fibrosis, Gr1 and F4/80 cells) is given as “suppressed the beneficial effects of fluoxetine treatment”. The “Effect of GR127935 on the beneficial effects of vortioxetine after injury” value in the assay with Tibialis anterior (vortioxetine 12 days-treatment plus GR127935, SC, differentiating cells, fiber size, calcium deposits, fibrosis, Gr1 and F4/80 cells) is recorded as “repressed the beneficial effects of the vortioxetine 12 days-treatment”. Further, the “Pax7 positive cells 4 days post-plating” value in the assay on satellite cells (plasma from fluoxetine treated animals incubated with GR127935) is 35.25%. Besides, in the assay with satellite cells (GR127935 added in vitro), the “Reserve cells (quiescent Pax7 positive cells) 14 days post-plating” value amounted to 4.5%. In the assay with satellite cells (plasma from fluoxetine-treated mice plus GR127935), the “MyoG expression difference when plated with GR127935” value is “lost”. The “Faster exit of quiescence and higher division rates when adding GR127935” value in the assay on satellite cells (plasma from fluoxetine-treated mice plus GR127935 in vitro) was “lost”.

For the compound `CNCCC(Oc1ccc(C(F)(F)F)cc1)c1ccccc1` (stereo not drawn) [fluoxetine], the Number of vessels in the assay with vessels (fluoxetine 18 mg/kg I.P, 3 weeks, Flk1GFP/+ mouse) is 1103±110.2 vessels per mm^2. In the assay with vessels (fluoxetine 18 mg/kg I.P, 6 weeks, Flk1GFP/+ mouse), this compound gave a Number of vessels of 1384±175.3 vessels per mm^2. The Number of vessels in the assay on vessels (fluoxetine P.O 6 weeks and PBS in osmotic pump, Flk1GFP/+ mice) was found to be 1949±576 vessels per mm^2. The “CD31+ cells on cryo-sectioned TA” value in the assay on vessels (fluoxetine P.O, 6 weeks, C57Bl/6 mice) is on record as 2260±361 CD31+ cells per mm^2. The same compound showed a Number of vessels in the assay on vessels (fluoxetine P.O, 6 weeks, Flk1GFP/+ mouse) of 1256±62.2 vessels per mm^2. Besides, in the assay on Tibialis anterior (setting [1]), the “Calcium deposits 14 days post-injury” value turned out to be 3.2±3 per mm^2, the “Differentiating (Myogenin+) cells 4 days post-injury vs placebo” value was “more cells were already differentiating”, the “Endomysial fibrosis 14 days post-injury” value is 2.2±0.7 % of total muscle area and the “F4/80 inflammatory cells 14 days post-injury” value is reported as 4.7±2.7 cells per section. Further, in the assay with Tibialis anterior (setting [1]), the “Gr1+ inflammatory cells 14 days post-injury” value worked out at 4.1±2.6 cells per section, the “Number of fibers 14 days post-injury vs placebo” value was “remained the same” and the “Regenerating fiber size 14 days post-injury” value is 129±12.6 μm^2. The “Number of SC 4 days post-injury” value with Tibialis anterior (notexin injury after fluoxetine treatment, Tg:Pax7nGFP mice) was 459±283 per mm^2. Moreover, the “Number of vessels 28 days post-injury vs placebo” value with Tibialis anterior (notexin injury after fluoxetine treatment, p=0.036) was “higher”. Also, in the assay on Tibialis anterior (notexin injury after fluoxetine treatment, p=0.076), the “Number of SC 28 days post-injury vs placebo” value is reported as “higher”. Further, the “Number of SC per TA after 3 rounds of injury” value in the assay with Tibialis anterior (several rounds of injury after fluoxetine treatment) is “remained constant”. The “Myogenine positive cells 4 days post-plating” value with satellite cells (20% plasma from fluoxetine treated C57Bl/6 mice) is recorded as 34.75±6.3 % of total plated cells. Besides, in the assay on satellite cells (setting [2]), the Division rate was found to be 8.7 ± 0.7 h and the “First satellite cells division, time post-plating” value is 26.45 h. Further, the “Pax7 positive cells 4 days post-plating” value in the assay on satellite cells (plasma from fluoxetine treated animals) is recorded as 24%. Besides, the “Reserve cells (quiescent Pax7 positive cells) 14 days post-plating” value in the assay with satellite cells amounted to 9.4%. Also, the “Myogenin (MyoG) expression increase” value in the assay with satellite cells (plasma from fluoxetine-treated mice vs placebo) is given as 3 times increase. Besides, in the assay with satellite cells (plasma from fluoxetine-treated mice vs placebo vs GR127935), the “MyoD (activation marker) expression between conditions” value is given as “did differ at any time investigated”.
